Source: ChEMBL document CHEMBL4308841, “Synthesis, in vitro antiproliferative activity, and kinase inhibitory effects of pyrazole-containing diarylureas and diarylamides” (Eur J Med Chem, 2018)

Experiments:
MDA-MB-435 = assay: Growth inhibition of human MDA-MB-435 cells assessed as cell growth at 1 uM incubated for 48 hrs by sulforhodamine B assay relative to control; format: functional; settings: MDA-MB-435, 48 h, read-out: Activity
A498 = assay: Growth inhibition of human A498 cells assessed as cell growth at 1 uM incubated for 48 hrs by sulforhodamine B assay relative to control; format: functional; settings: A498, 48 h, read-out: Activity
SNB-75 = assay: Growth inhibition of human SNB75 cells assessed as cell growth at 1 uM incubated for 48 hrs by sulforhodamine B assay relative to control; format: functional; settings: SNB-75, 48 h, read-out: Activity
SW-620 = assay: Growth inhibition of human SW620 cells assessed as cell growth at 1 uM incubated for 48 hrs by sulforhodamine B assay relative to control; format: functional; settings: SW-620, 48 h, read-out: Activity
BT-549 [1] = assay: Growth inhibition of human BT549 cells incubated for 48 hrs by sulforhodamine B assay; format: functional, cell-based; settings: BT-549, 48 h
SN12C [2] = assay: Growth inhibition of human SN12C cells assessed as cell growth at 0.01 uM incubated for 48 hrs by sulforhodamine B assay relative to control; format: functional; settings: read-out: Activity
SN12C [3] = assay: Growth inhibition of human SN12C cells incubated for 48 hrs by sulforhodamine B assay; format: functional, cell-based
MDA-MB-468 = assay: Growth inhibition of human MDA-MB-468 cells assessed as cell growth at 0.01 uM incubated for 48 hrs by sulforhodamine B assay relative to control; format: functional; settings: MDA-MB-468, 48 h, read-out: Activity
A549 = assay: Growth inhibition of human A549/ATCC cells assessed as cell growth at 0.01 uM incubated for 48 hrs by sulforhodamine B assay relative to control; format: functional; settings: A549, 48 h, read-out: Activity
SK-MEL-28 = assay: Growth inhibition of human SK-MEL-28 cells assessed as cell growth at 0.01 uM incubated for 48 hrs by sulforhodamine B assay relative to control; format: functional; settings: SK-MEL-28, 48 h, read-out: Activity
OVCAR-5 = assay: Growth inhibition of human OVCAR5 cells assessed as cell growth at 0.01 uM incubated for 48 hrs by sulforhodamine B assay relative to control; format: functional; settings: OVCAR-5, 48 h, read-out: Activity
SF-268 = assay: Growth inhibition of human SF268 cells assessed as cell growth at 0.01 uM incubated for 48 hrs by sulforhodamine B assay relative to control; format: functional; settings: SF-268, 48 h, read-out: Activity
HT-29 [4] = assay: Growth inhibition of human HT-29 cells incubated for 48 hrs by sulforhodamine B assay; format: functional, cell-based; settings: HT-29, 48 h
UO-31 = assay: Growth inhibition of human UO31 cells assessed as cell growth at 0.1 uM incubated for 48 hrs by sulforhodamine B assay relative to control; format: functional; settings: UO-31, 48 h, read-out: Activity
HT-29 [5] = assay: Growth inhibition of human HT-29 cells assessed as cell growth at 10 uM incubated for 48 hrs by sulforhodamine B assay relative to control; format: functional; settings: HT-29, 48 h, read-out: Activity
HCT-15 [6] = assay: Growth inhibition of human HCT15 cells assessed as cell growth at 0.1 uM incubated for 48 hrs by sulforhodamine B assay relative to control; format: functional; settings: HCT-15, 48 h, read-out: Activity
RXF 393 = assay: Growth inhibition of human RXF393 cells assessed as cell growth at 1 uM incubated for 48 hrs by sulforhodamine B assay relative to control; format: functional; settings: RXF 393, 48 h, read-out: Activity
HCT-15 [7] = assay: Growth inhibition of human HCT15 cells incubated for 48 hrs by sulforhodamine B assay; format: functional, cell-based; settings: HCT-15, 48 h
K562 = assay: Growth inhibition of human K562 cells assessed as cell growth at 0.1 uM incubated for 48 hrs by sulforhodamine B assay relative to control; format: functional; settings: K562, 48 h, read-out: Activity
MDA-MB-231 = assay: Growth inhibition of human MDA-MB-231 cells assessed as cell growth at 1 uM incubated for 48 hrs by sulforhodamine B assay relative to control; format: functional; settings: MDA-MB-231, 48 h, read-out: Activity
MOLT-4 = assay: Growth inhibition of human MOLT4 cells assessed as cell growth at 1 uM incubated for 48 hrs by sulforhodamine B assay relative to control; format: functional; settings: MOLT-4, 48 h, read-out: Activity
CCRF-CEM = assay: Growth inhibition of human CCRF-CEM cells incubated for 48 hrs by sulforhodamine B assay; format: functional, cell-based
OVCAR-8 [8] = assay: Growth inhibition of human OVCAR8 cells incubated for 48 hrs by sulforhodamine B assay; format: functional, cell-based; settings: OVCAR-8, 48 h
OVCAR-8 [9] = assay: Growth inhibition of human OVCAR8 cells assessed as cell growth at 0.1 uM incubated for 48 hrs by sulforhodamine B assay relative to control; format: functional; settings: OVCAR-8, 48 h, read-out: Activity
HT-29 [10] = assay: Growth inhibition of human HT-29 cells assessed as cell growth at 0.1 uM incubated for 48 hrs by sulforhodamine B assay relative to control; format: functional; settings: HT-29, 48 h, read-out: Activity
BT-549 [11] = assay: Growth inhibition of human BT549 cells assessed as cell growth at 100 uM incubated for 48 hrs by sulforhodamine B assay relative to control; format: functional; settings: BT-549, 48 h, read-out: Activity
NCI-H322M = assay: Growth inhibition of human NCI-H322M cells assessed as cell growth at 100 uM incubated for 48 hrs by sulforhodamine B assay relative to control; format: functional; settings: read-out: Activity
DU-145 = assay: Growth inhibition of human DU145 cells assessed as cell growth at 0.1 uM incubated for 48 hrs by sulforhodamine B assay relative to control; format: functional; settings: DU-145, 48 h, read-out: Activity
[12] = read-out: LC50 (the source's name)
[13] = read-out: pLC50 (the source's name) (converted)

SMILES: COc1cc(Cl)cc(-c2nn(-c3cccc(NC(=O)Nc4ccc(Cl)c(C(F)(F)F)c4)c3)cc2-c2ccncc2)c1
- growth at 1 µM (MDA-MB-435): 81%
- growth at 1 µM (A498): 78%
- growth at 1 µM (SNB-75): 68%
- growth at 1 µM (SW-620): 63%
- GI50 (BT-549 [1]; read-out: GI50): 2.38 µM
- CC50 (BT-549 [1]; [12]): 25.8 µM
- TGI (BT-549 [1]; read-out: TGI): 65.5 µM
- GI50 (BT-549 [1]; read-out: pGI50 (converted)): 2.4 µM
- CC50 (BT-549 [1]; [13]): 28.8 µM
- TGI (BT-549 [1]; read-out: pTGI (converted)): 6.61 µM
- growth at 0.01 µM (SN12C [2]): 98%
- GI50 (SN12C [3]; read-out: GI50): 1.56 µM
- LC50 (SN12C [3]; read-out: LC50): > 100 µM
- TGI (SN12C [3]; read-out: TGI): 82.1 µM
- GI50 (SN12C [3]; read-out: pGI50 (converted)): 1.55 µM
- LC50 (SN12C [3]; read-out: pLC50 (converted)): > 100 µM
- TGI (SN12C [3]; read-out: pTGI (converted)): 8.13 µM
- growth at 0.01 µM (MDA-MB-468): 92%
- growth at 0.01 µM (A549): 97%
- growth at 0.01 µM (SK-MEL-28): 98%
- growth at 0.01 µM (OVCAR-5): 54%
- growth at 0.01 µM (SF-268): 95%
- GI50 (HT-29 [4]; read-out: GI50): 1.14 µM
- CC50 (HT-29 [4]; [12]): 3.52 µM
- TGI (HT-29 [4]; read-out: TGI): 43.8 µM
- GI50 (HT-29 [4]; read-out: pGI50 (converted)): 1.15 µM
- CC50 (HT-29 [4]; [13]): 38 µM
- TGI (HT-29 [4]; read-out: pTGI (converted)): 4.37 µM
- growth at 0.1 µM (UO-31): 55%
- growth at 10 µM (HT-29 [5]): 5.57%
- growth at 0.1 µM (HCT-15 [6]): 54%
- growth at 1 µM (RXF 393): 78%
- GI50 (HCT-15 [7]; read-out: GI50): 0.493 µM
- CC50 (HCT-15 [7]; [12]): 6.46 µM
- TGI (HCT-15 [7]; read-out: TGI): 24 µM
- GI50 (HCT-15 [7]; read-out: pGI50 (converted)): 0.49 µM
- CC50 (HCT-15 [7]; [13]): 8.51 µM
- TGI (HCT-15 [7]; read-out: pTGI (converted)): 2.4 µM
- growth at 0.1 µM (K562): 91%
- growth at 1 µM (MDA-MB-231): 69%
- growth at 1 µM (MOLT-4): 58%
- GI50 (CCRF-CEM; read-out: GI50): 0.613 µM
- CC50 (CCRF-CEM; [12]): > 100 µM
- TGI (CCRF-CEM; read-out: TGI): 35.5 µM
- CC50 (CCRF-CEM; [13]): > 100 µM
- GI50 (OVCAR-8 [8]; read-out: GI50): 0.739 µM
- CC50 (OVCAR-8 [8]; [12]): > 100 µM
- TGI (OVCAR-8 [8]; read-out: TGI): 59.3 µM
- GI50 (OVCAR-8 [8]; read-out: pGI50 (converted)): 0.741 µM
- CC50 (OVCAR-8 [8]; [13]): > 100 µM
- TGI (OVCAR-8 [8]; read-out: pTGI (converted)): 7.08 µM
- growth at 0.1 µM (OVCAR-8 [9]): 96%
- growth at 0.1 µM (HT-29 [10]): 94%
- growth at 100 µM (BT-549 [11]): -68%
- growth at 100 µM (NCI-H322M): -22%
- growth at 0.1 µM (DU-145): 98%
